The text below walks through data of US6638919B2, “Antiviral purine derivatives” (University College Cardiff Consultants Limited, priority 2001, dated 2003).

A short description of data set [1]: Solid state stability of salt forms. The class given is physicochemical. Conditions: % of parent (AUC) after two weeks at 60° C. An excerpt: (§1) The solubility and solution/solid state stability of three salt forms of (1S, 4R)-4-[2-amino-5(cyclopropylamino)-9(H)-purin-9-yl]-2-cyclopentene-1-methanol O-(phenyl ethoxy-L-alaninyl) phosphate
Data set [2] can be described thus: Solution stability of salt forms. It is filed as physicochemical. As to conditions: % of parent (AUC) after 27 hr at room temperature.
Description: as §1

A short description of a further data set: Solid type of salt forms. It is filed as physicochemical.
Data set [3] has as its system HIV-2. As to conditions: Table II, known data disclosed in PCT/GB96/00580; read-out: EC50/μM HIV-2 CEM; cited from earlier work.
Data set [4] deals with HIV-1. As to conditions: read-out: EC50/μM HIV-1 CEM; Table II, known data disclosed in PCT/GB96/00580; cited from earlier work.
Data set [5] relates to CEM cells. Conditions: cited from earlier work.
The subject of data set [6] is MSV. The data set is described as follows: Inhibition of MSV. The class given is cell-based. Conditions: Table III; inhibition of MSV; read-out: EC50 MSV. How it is done: EC50 MSV: EC50 μM for inhibition of MSV
Data set [7] concerns HIV-1. The data set is described as follows: Inhibition of HIV-1 giant cell formation in CEM cells. The class given is cell-based. As to conditions: mean increase in potency of phosphoramidate versus its parent nucleoside for HIV 1 and HIV 2.
Data set [8] has as its system MSV. Briefly: Minimum cytotoxic concentration in MSV assay. Also noted: unit not given here. It is filed as cell-based. As to conditions: Table III. The text has this:
MCC MSV: minimum cytotoxic concentration in MSV essay.

The test system of data set [9] is HIV-2. Briefly: Inhibition of HIV-2 giant cell formation in CEM cells. It is filed as cell-based. How it is done:
(§2) Then 100 μL of the infected cell suspension was transferred to microtiter plate wells and mixed with 100 μL of the appropriate dilutions of the test compounds.
HIV1 CEM: EC50 in μM for inhibition of […] in CEM cells.
HIV2 CEM: EC50 in μM for inhibition of HIV-2 in CEM cells

The test system of data set [10] is CEM cells. Briefly: Toxicity to mock-infected CEM cells (CC50). It is filed as cell-based. As to the method: as §2
(§3) CC50 CEM: CC50 in μM for toxicity to CEM cells.
(§4) CC50 CEM: CC50 μM for toxicity to CEM cells

Data set [11] has as its system HIV-1. The data set is described as follows: Inhibition of HIV-1 giant cell formation in CEM cells. The class given is cell-based. As to the method:
as §2
HIV 1 CEM: EC50 in μM for inhibition of HIV1 in CEM cells

The subject of data set [12] is HIV-2. Briefly: Inhibition of HIV-2 in CEM.TK- cells. It is filed as cell-based. Conditions: Human immunodeficiency virus 2, CEM-TK(-), read-out: HIV2 CEM. TK. As to the method:
Cells were infected with HIV-1 as previously described [Balzarini et al. AIDS (1991), 5, 21-28]. Briefly, 5×10^5 cells per milliliter were infected with HIV-1 or HV-2 at 100 CClD50 (50% cell culture infective dose) per milliliter of cell suspension. Then 100 μL of the infected cell suspension was transferred to microtiter plate wells and mixed with 100 μL of the appropriate dilutions of the test compounds. After 4 days giant cell formation was recorded microscopically in the HIV-infected cell cultures [CEM].
HIV2CEM.TK- EC50 μM for inhibition of IV-2 in CEM=cells

Data set [13] can be described thus: Toxicity to mock-infected CEM cells (CC50). It is filed as cell-based. As to conditions: human. How it is done: as §2, §3, §4
Data set [14] in a line: Biological stability in heparinised human plasma.
Description: (§5) Each compound was incubated in normal heparinised human plasma at 37° C. for 4 hours. […] Drug concentrations were then determined by LC/MS/MS analysis using standard methods.
Data set [15] is described as follows: Acid stability, dilute HCl pH1, simulated stomach conditions. It is filed as physicochemical. As to conditions: 0.1N HCl pH1, 25° C. As to the method:
Compounds were tested for their stability towards acid-mediated hydrolytic decomposition employing a test designed to simulate stomach conditions. Each compound was incubated in dilute HCl of pH1 for 24 hours at 25° C. 0.3 mg of compound were added to 1 mL of 0.1N HCl at 25° C. HPLC was run immediately for time=0 and at intervals up to approximately 24 hours.

The conditions of data set [16]: human, plasma.
Description: as §5
The mark [17] stands for this setting: Table III, EC50 for inhibition of HIV-2 in CEM cells, read-out: HIV2 CBM.
Setting [18] is: Human immunodeficiency virus 2, CCRF-CEM, Table III, EC50 for inhibition of HIV-2 in CEM cells, read-out: HIV2 CBM.
The mark [19] stands for this setting: Table III, toxicity to CEM cells, read-out: CC50 CEN.
Where [20] appears, read: Human immunodeficiency virus 1, CCRF-CEM, Table III, EC50 for inhibition of HIV1 in CEM cells, read-out: HIV1 CBM.
The mark [21] stands for this setting: heparinised human plasma, 37° C.

The structures appear in SMILES notation. “Also recorded” adds a separate entry of the source. Like-named read-outs stand apart in the source and are kept apart here.

`CCOC(=O)[C@H](C)NP(=O)(OC[C@@H]1C=C[C@H](n2cnc3c(NC4CC4)nc(N)nc32)C1)Oc1ccccc1.O=C(O)/C=C/C(=O)O` (stereo partly drawn) [Example 3, (1S,4R)-4-(2-Amino-6cyclopropylamino-9(H)-purin-9-yl)-2-cyclopentene-1-methanol O-(phenylethoxy-L-alaninyl) phosphate Fumarate Salt]: in data set [1], the “Solid State Stability (%)” value was 97.1%. In addition, in data set [2], the “Stability (%) 0.1 N HCl” value is 70.0%, the “Stability (%) HPMC/Tween” value is on record as 98.3% and the “Stability (%) PBS” value is on record as 98.5%. The “Solid Type” value in the data set “Solid type of salt forms” is “crystals”.
`CCOC(=O)[C@H](C)NP(=O)(OC[C@@H]1C=C[C@H](n2cnc3c(NC4CC4)nc(N)nc32)C1)Oc1ccccc1.O=C(O)CCC(=O)O` (stereo partly drawn) [Example 1, (1S,4R)-442-Amino-6-cyclopropylamino-9(purin-9-yl)-2-cyclopentene-1-methanol O-(phenylethoxy-L-alaninyl) phosphate Succinate Salt]: the “Solid State Stability (%)” value in [1] was 99.6%. Moreover, in data set [2], the “Stability (%) 0.1 N HCl” value turned out to be 66.0%, the “Stability (%) HPMC/Tween” value amounted to 98.8% and the “Stability (%) PBS” value was 99.8%. Also, in the data set “Solid type of salt forms”, the “Solid Type” value is “crystals”.
As for `CCOC(=O)[C@H](C)NP(=O)(OC[C@@H]1C=C[C@H](n2cc(C)c(=O)[nH]c2=O)O1)Oc1ccccc1` (stereo partly drawn) [Compound 951, 2′, 3′-dideoxy-2′, 3′-didehydrothymidine 5′-(phenylexthoxyalaninyl) phosphoramidate], the EC50 in the data set with HIV-2 [3] is 0.07 µM; in the data set with HIV-1 [4] it was 0.1 µM. The CC50 in the data set on CEM cells [5] is 5.5 µM.
As to `COC(=O)[C@H](C)NP(=O)(OC[C@@H]1C=C[C@H](n2cnc3c(NC4CC4)nc(N)nc32)C1)Oc1ccccc1` (stereo partly drawn) [Compound 1490, (1S,4R)-4-(2-amino-6-cyclopropylamino-9H-purin-9-yl)-2-cyclopentene-1-methanol O-[phenyl-(methoxy-L-alaninyl)]-phosphate], the EC50 in the data set on MSV [6] was 1600 nM; in the data set on HIV-2 [9] (CEM cells, giant cell formation after 4 days, Tables I and II, read-out: EC50/μM HIV-2 CEM), 0.09 µM; in the data set with HIV-2 [9] (setting [17]), 0.05 µM; in the data set with HIV-1 [11] (CEM cells, giant cell formation after 4 days, Tables I and II, read-out: EC50/μM HIV-1 CEM) it was 0.07 µM. In the data set with HIV-1 [7], the “Fold Improvement” value came to 30.2. Further, in the data set with MSV [8], the MCCMSV was >4. The CC50 in the data set on CEM cells [10] stood at 13100 nM.
`CCC(CC)OC(=O)[C@H](C)NP(=O)(OC[C@@H]1C=CC(n2cnc3c(NC4CC4)nc(N)nc32)C1)Oc1ccccc1` (stereo partly drawn) [Compound 1685]: the EC50 in the data set on MSV [6] amounted to 10100 nM; with HIV-2 [9] (setting [18]), 2 µM; with HIV-2 [12] it was 12500 nM; with HIV-1 [11] (setting [20]), 1.6 µM. In addition, the MCCMSV with MSV [8] is >20. For the same compound, in data set [13] (setting [19]), the CC50 was found to be 19.7 µM.
Regarding `C[C@H](NP(=O)(OC[C@@H]1C=CC(n2cnc3c(NC4CC4)nc(N)nc32)C1)Oc1ccccc1)C(=O)OCCC(C)(C)C` (stereo partly drawn) [Compound 1687, (1S,4R)-4-(2-amino6cyclopropylamino-9H-purin-9-yl)-2-cyclopentene-1-methanol O-[phenyl(3,3-dimethyl-]-butoxy-L-alaninyl)phosphate], the EC50 in the data set with MSV [6] came out at 2220 nM; with HIV-2 [9] (setting [18]), 0.2 µM; in the data set with HIV-2 [12], 140 nM; in the data set with HIV-1 [11] (setting [20]) it was 0.2 µM. Also, the MCCMSV in the data set with MSV [8] was >4. Also, the CC50 in [13] (setting [19]) is 10.2 µM.
Regarding `CCOC(=O)[C@H](C)NP(=O)(OC[C@@H]1C=C[C@H](n2cnc3c(NC4CC4)nc(N)nc32)C1)Oc1ccccc1` (stereo partly drawn) [Compound 1587, (1S,4R)-4-(2-amino-6cyclopropylamino-9H-purin-9-yl)-2-cyclopentene-1-methaanol O-[phenyl-(ethoxy-L-alaninyl)]-phosphate], in [1], the “Solid State Stability (%)” value came out at 93.7%. In data set [14] (setting [21]), the “Half-life” value came to 26 h. In data set [14] (heparinised human plasma, 37° C., 4 hours), the “% Remaining at 4 hours” value amounted to 91%. In addition, in data set [14] (human plasma, Table V data), the “stability advantage over each of compounds 1001 and 1093” value is recorded as 6 fold. In data set [2], the “Stability (%) 0.1 N HCl” value is recorded as 69.1%. Moreover, the “Stability (%) HPMC/Tween” value in [2] is given as 97.6%. The “Stability (%) PBS” value in [2] stood at 98.5%. Besides, the EC50 in the data set on HIV-2 [9] (setting [17]) is 0.06 µM; in the data set with HIV-1 [11] (Table III, EC50 for inhibition of HIV1 in CEM cells, read-out: HIV1 CBM), 0.07 µM. In addition, the “acid stability in words” value in data set [15] (after 22 hours) is listed as “remained in tact”. In addition, the “Compound left (%)” value in data set [15] (time 0 hr) is listed as 100%; in [15] (time 22 hr), 77%. Also, in the data set with CEM cells [10] (setting [19]), the CC50 was 12100 nM. Further, the “Solid Type” value in “Solid type of salt forms” was “Amorphous; also recorded: Hygroscopic”.
As for `CCOC(=O)[C@H](C)NP(=O)(OC[C@@H]1C=C[C@H](n2cnc3c(NC4CC4)nc(N)nc32)C1)Oc1ccccc1.O=C(O)CCCC(=O)O` (stereo partly drawn) [Example 4, (1S,4R)-4-(2-Amino-6-cyclopropylamino-9(H)-purin-9-yl)-2-cyclopenten-1-methanol O-(phenylethoxy-L-alaninyl) phosphate Glutarate Salt], the “Solid State Stability (%)” value in data set [1] worked out at 98.9%. In data set [2], the “Stability (%) 0.1 N HCl” value is on record as 69.3%, the “Stability (%) HPMC/Tween” value is given as 98.6% and the “Stability (%) PBS” value was found to be 99.9%. Besides, the “Solid Type” value in “Solid type of salt forms” was “crystals”.
Consider `COC(=O)C(C)NP(=O)(OC[C@@H]1CC[C@H](n2cnc3c(N)ncnc32)O1)Oc1ccccc1` (stereo partly drawn) [Compound 1093, 2′, 3′-dideoxy adenosine 5′-(phenylmethoxyalaninyl) phosphoramidate], for which, in data set [14] (setting [21]), the “Half-life” value amounted to 4.2 h. For the same compound, the results for the EC50 in the data set with HIV-2 [3] and in the data set on HIV-1 [4] were 0.035 µM and 0.016 µM, respectively. In addition, the “time to degradation in acid” value in data set [15] is on record as “less than 13 hours”. The figures for the “Compound left (%)” value in [15] (time 0 hr) and in [15] (time 13 hr) were 100% and 0%, respectively. Besides, in data set [16], the “% Remaining at 4 hours” value turned out to be 50%. Moreover, in the data set on CEM cells [5] (read-out: CC50/μM CEM, Table II, known data disclosed in PCT/GB96/00580), the CC50 is 2.57 µM.
In the case of `COC(=O)C(C)NP(=O)(OCC1C=CC(n2cnc3c(=O)[nH]c(N)nc32)C1)Oc1ccccc1` [Example A, (1R, 4S)-9-14-(hydroxymethyl)-2-cyclopenten-2-yl] guanine-5′-[phenyl-(methoxy-L-alaninyl)]-phosphate, reference compound], the “Fold Improvement” value in the data set with HIV-1 [7] is reported as 1.9. The EC50 in the data set on HIV-2 [9] (Human immunodeficiency virus 2, CCRF-CEM, 96 h, CEM cells, giant cell formation after 4 days, Tables I and II, read-out: EC50/μM HIV-2 CEM) came to 0.85 µM; in the data set with HIV-1 [11] (Human immunodeficiency virus 1, CCRF-CEM, 96 h, CEM cells, giant cell formation after 4 days, Tables I and II, read-out: EC50/μM HIV-1 CEM), 1.3 µM. Also, in [13] (mock-infected CEM cells, Tables I and II, read-out: CC50/μM CEM), the CC50 turned out to be 123 µM.
As for `COC(=O)C[C@H](NP(=O)(OC[C@@H]1C=C[C@H](n2cc(C)c(=O)[nH]c2=O)O1)Oc1ccccc1)C(=O)OC` (stereo partly drawn) [Compound 1078, 2′, 3′-dideoxy-2′, 3′-didehydrothymidine 5′-(phenyldimethoxyaspartyl) phosphoramidate], the figures for the EC50 in the data set on HIV-2 [3] and in the data set on HIV-1 [4] were 0.65 µM and 0.55 µM, respectively. Also, in the data set on CEM cells [5], the CC50 was 209 µM.
